Test results taken from doi:10.1101/2023.02.27.530254, “Large library docking for cannabinoid-1 receptor agonists with reduced side effects” (bioRxiv, 2024).
Like-named read-outs stand apart in the source and are kept apart here.

What was measured:
CB1 = target: T1, CB1 (Rattus norvegicus, UniProt P20272); experiment: Radioligand competition binding with [3H]-CP-55,940, rat brain membranes; details: for Emax: read-out: rCB1 binding Emax [SEM]; for % [3H]-CP-55,940 displacement (mean) from single point screen: screens at 10 μM (white cells), 1 μM (orange) or 300 nM (green), cell colours not visible
T1 construct: membrane preparations from rat brain (source of CB1); tissue Bioivt RAT00BRAINMZN; host or cells: rat brain
T1 sequence (P20272 whole entry): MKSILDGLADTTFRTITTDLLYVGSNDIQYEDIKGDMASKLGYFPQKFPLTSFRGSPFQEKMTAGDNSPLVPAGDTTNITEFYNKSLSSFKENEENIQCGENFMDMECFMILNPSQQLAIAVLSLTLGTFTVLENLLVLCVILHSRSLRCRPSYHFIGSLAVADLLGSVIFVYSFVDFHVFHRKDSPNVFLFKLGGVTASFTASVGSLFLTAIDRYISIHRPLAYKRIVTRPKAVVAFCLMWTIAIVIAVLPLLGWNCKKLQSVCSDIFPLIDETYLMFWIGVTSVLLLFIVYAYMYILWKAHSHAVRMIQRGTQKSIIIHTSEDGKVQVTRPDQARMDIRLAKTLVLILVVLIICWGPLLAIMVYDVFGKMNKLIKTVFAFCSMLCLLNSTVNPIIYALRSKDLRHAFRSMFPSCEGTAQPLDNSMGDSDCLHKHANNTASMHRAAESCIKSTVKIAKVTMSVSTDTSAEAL
Procedure: The results were analyzed using nonlinear regression to determine the IC50 and Ki values for each ligand (Prism by GraphPad Software, Inc., San Diego, CA). The Ki values are expressed as the mean of two to three experiments each performed in triplicate.

hCB1 = hCB1 (Homo sapiens, UniProt P21554); experiment: bioSens-All ebBRET effector biosensor signaling profiling, HEK293; type: cell-based; parameters: host or cells: HEK293 (HEK293SL clone), transient
hCB1, sequence (P21554 whole entry, the tested form may be a part): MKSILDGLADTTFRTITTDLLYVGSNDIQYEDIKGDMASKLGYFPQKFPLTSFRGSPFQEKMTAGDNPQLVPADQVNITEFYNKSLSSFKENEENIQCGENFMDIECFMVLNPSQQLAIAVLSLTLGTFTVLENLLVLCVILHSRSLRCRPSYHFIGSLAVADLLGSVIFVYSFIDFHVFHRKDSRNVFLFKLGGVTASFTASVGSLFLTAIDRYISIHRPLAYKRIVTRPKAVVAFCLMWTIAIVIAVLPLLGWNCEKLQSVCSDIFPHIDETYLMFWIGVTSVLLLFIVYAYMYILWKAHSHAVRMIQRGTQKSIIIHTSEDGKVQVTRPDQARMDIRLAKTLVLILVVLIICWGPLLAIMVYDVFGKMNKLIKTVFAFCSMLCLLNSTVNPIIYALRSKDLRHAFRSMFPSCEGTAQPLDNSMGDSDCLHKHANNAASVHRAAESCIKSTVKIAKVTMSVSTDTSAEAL
Procedure: ebBRET-based effector membrane translocation biosensor assays were conducted at Domain Therapeutics NA Inc. (Montreal, QC, Canada) as previously described. […] HEK293 cells were maintained in Dulbecco’s Modified Eagle Medium (DMEM) (Wisent) supplemented with 1% penicillin- streptomycin (Wisent) and 10% (or 2 % for transfection) fetal bovine serum (Wisent) at 37°C with 5% CO2. All biosensor-coding plasmids and related information are the property of Domain Therapeutics NA Inc. The total amount of transfected DNA was adjusted and kept constant at 1 μg per mL of cell culture to be transfected using salmon sperm DNA (Invitrogen) as ‘carrier’ DNA, PEI (polyethylenimine 25 kDa linear, PolyScience) and DNA (3:1 ml PEI:mg DNA ratio) were first diluted separately in 150 mM NaCl then mixed and incubated for at least 20 minutes at room temperature to allow for the formation of DNA/PEI complexes. During the incubation, HEK293 cells were detached, counted, and re-suspended in maintenance medium to a 350,000 cells per mL density. At the end of the incubation period, the DNA/PEI mixture was added to the cells. Cells were finally distributed in 96-well plates (White Opaque 96-well /Microplates, Greiner) at a density of 35,000 cells per well. Forty-eight hours post-transfection, medium was aspirated and replaced with 100 μl of Hank’s Balanced Salt Solution buffer (HBSS) (Wisent) per well using 450-Select TS Biotek plate washer. After 60 min incubation in this medium, 10 μL of 10 μM e-Coelenterazine Prolume Purple (Methoxy e-CTZ) (Nanolight) was added to each well for a final concentration of 1 μM immediately followed by addition of increasing concentrations of the test compounds to each well using the HP D300 digital dispenser (Tecan). All compounds were assayed at 22 concentrations with each biosensor after a 10-minute room temperature incubation period. […] All BRET ratios were standardized using the universal BRET (uBRET) equation: uBRET=BRETratio-A/B-A×10,000 where A is the BRET ratio obtained from transfection of negative control and B is the BRET ratio obtained from transfection of positive control. […] The data were analyzed using the four-parameter logistic non-linear regression model in GraphPad Prism 9.1 and data were presented as means ± CIs of 1–4 independent experiments.
The SEM was calculated for the logEmax/EC50 ratios using the following equation: SEM=σ/n where σ is the standard deviation, and n is the number of experiments.

C56BL/6 mice = experiment: Catalepsy test (vertical wire mesh); type: in vivo, mouse; details: non-cannabinoid positive control
Procedure: Thirty and 60 minutes after an i.p. injection of the compounds, mice were placed on a vertical wire mesh and the latency to move all four paws was recorded.

[1] = maximal radioligand displacement
[2] = rCB1 binding Ki [95% CI], [3H]-CP-55,940 competition, rat brain membranes
[3] = HEK293, read-out: hCB1 Gi1 Emax [95% CI]
[4] = HEK293, read-out: hCB1 GoB Emax [95% CI]
[5] = HEK293, read-out: hCB1 Gz Emax [95% CI]

`COC(=O)[C@@H](c1cccs1)N(C)C(=O)c1cc(C)n(-c2cccc(C(F)(F)F)c2)n1` [‘6000] gave an Emax (CB1; [1]) of 96% and a Ki (CB1; [2]) of 1.46 µM.

In the case of `N#Cc1cccc(OCc2ccoc2C(=O)OCC2CSc3ccccc3O2)c1` (centres unmarked) [compound 5424], the Emax (CB1; [1]) is reported as 104%, the Ki (CB1; [2]) is reported as 0.876 µM and the “% [3H]-CP-55,940 displacement (mean) from single point screen” value (CB1; listed as 7019_31) is reported as 80.66%.

`COC(=O)[C@@H]1[C@@H]2CC[C@@H]2CN1C(=O)c1cc(C)n(-c2cccc(C(F)(F)F)c2)n1` [‘6448] was tested, and the “hCB1 Gi1 pEC50 [95% CI]” value (hCB1; Gi1 sensor) was 6.5 [6.4 – 6.5], the “hCB1 Gi1 Emax [95% CI]” value (hCB1; Gi1 sensor, normalized to CP-55,940) was 87 [86 – 88] and the “hCB1 GoB pEC50 [95% CI]” value (hCB1; GoB sensor) was 6.5 [6.4 – 6.6]. For the same molecule, the “hCB1 GoB Emax [95% CI]” value (hCB1; GoB sensor, normalized to CP-55,940) was 90 [87 – 91], the “hCB1 Gz pEC50 [95% CI]” value (hCB1; Gz sensor) was 6.1 [5.9 – 6.4] and the “hCB1 Gz Emax [95% CI]” value (hCB1; Gz sensor, normalized to CP-55,940) was 151 [130 –172]. It also gave an EC50 (hCB1; read-out: hCB1 Gi1 EC50 [95% CI], Gi1 sensor) of 0.345 µM, an EC50 (hCB1; read-out: hCB1 GoB EC50 [95% CI], GoB sensor) of 0.31 µM and an EC50 (hCB1; read-out: hCB1 Gz EC50 [95% CI], Gz sensor) of 0.728 µM. The “rCB1 binding pKi [95% CI]” value (CB1; [3H]-CP-55,940 competition, rat brain membranes) was 6.1 [5.9 – 6.3], the “rCB1 binding Emax [SEM]” value (CB1; [1]) was 103% and the Ki (CB1; read-out: rCB1 binding Ki [95% CI], [3H]-CP-55,940 competition, rat brain membranes) was 0.866 µM.

Work on `Cc1cc(C(=O)N2CC3(CCC3)[C@H]2[C@H]2CCCO2)nn1-c1cccc(C(F)(F)F)c1` [‘3737b] yielded an Emax (hCB1; [3]) of 89%, an Emax (hCB1; [4]) of 152% and an Emax (hCB1; [5]) of 231%. For the same molecule, the EC50 (hCB1; hCB1 Gi1 EC50 [95% CI]) was 3.03 µM, the EC50 (hCB1; hCB1 GoB EC50 [95% CI]) was 19.8 µM and the EC50 (hCB1; hCB1 Gz EC50 [95% CI]) was 30.8 µM.

Molecule `Cc1cc(C(=O)NC(C)(c2ccco2)c2ccco2)nn1-c1cccc(C(F)(F)F)c1` [‘4936] has an Emax (CB1; [1]) of 88% and a Ki (CB1; [2]) of 0.0075 µM.

In the case of `COC(=O)[C@@H]1[C@@H]2CCC[C@@H]2CN1C(=O)c1nn(-c2cccc(C(F)(F)F)c2)c2c1CCC2` [10_17], the “% [3H]-CP-55,940 displacement (mean) from single point screen” value (CB1) is reported as 98.24%.

With `O=C(CCCN1CCC(O)(c2ccc(Cl)cc2)CC1)c1ccc(F)cc1` [haloperidol, reference compound] the catalepsy (C56BL/6 mice) was “dramatic catalepsy”.

`Cc1cc(C(=O)NC(C)(c2ccccc2)c2ccco2)nn1-c1cccc(C(F)(F)F)c1` (centres unmarked) [‘5806] gave an Emax (CB1; [1]) of 100% and a Ki (CB1; [2]) of 0.008 µM.

`COC(=O)C(NC(=O)c1cc(C)n(-c2cccc(C#N)c2)n1)c1ccsc1` (centres unmarked) [‘31604] was tested, and the Emax (CB1; [1]) was 100% and the Ki (CB1; [2]) was 0.801 µM.

With `Cc1c(C(=O)OCC2CSc3ccccc3O2)cnn1Cc1ccccc1` (centres unmarked) [‘7800] the Emax (hCB1; [3]) was 34%, the Emax (hCB1; [4]) was 21% and the EC50 (hCB1; hCB1 Gi1 EC50 [95% CI]) was 6.79 µM. It also gave an EC50 (hCB1; hCB1 GoB EC50 [95% CI]) of 0.597 µM and a Ki (CB1; [2]) of 1.01 µM.

`Cc1cc(C(=O)NC(c2ccccc2)c2ccco2)nn1-c1cccc(C(F)(F)F)c1` (centres unmarked) [‘1081] gave an Emax (hCB1; [3]) of 49%, an Emax (hCB1; [4]) of 45% and an Emax (hCB1; [5]) of 72%. For the same molecule, the EC50 (hCB1; hCB1 Gi1 EC50 [95% CI]) was 0.15 µM, the EC50 (hCB1; hCB1 GoB EC50 [95% CI], GoB sensor) was 0.0917 µM and the EC50 (hCB1; hCB1 Gz EC50 [95% CI]) was 0.225 µM. The EC50 (hCB1; hCB1 Gz pEC50 [95% CI]) was 0.2 µM, the Emax (CB1; [1]) was 96% and the Ki (CB1; [2]) was 0.116 µM.

For `Cc1nn(Cc2ccc(Cl)cc2)c(C)c1C(=O)OCC1CSc2ccccc2O1` (centres unmarked) [‘5463], the Emax (hCB1; [3]) was 31%, the Emax (hCB1; [4]) was 32% and the EC50 (hCB1; hCB1 Gi1 EC50 [95% CI]) was 4.94 µM. For the same molecule, the EC50 (hCB1; hCB1 GoB EC50 [95% CI]) was 7.47 µM, the Emax (CB1; [1]) was 88% and the Ki (CB1; [2]) was 0.825 µM.

Molecule `CC(=O)C(C)(NC(=O)c1cc(C)n(-c2cccc(C(F)(F)F)c2)n1)c1cccs1` (centres unmarked) [‘4156] has an Emax (CB1; [1]) of 91% and a Ki (CB1; [2]) of 0.0135 µM.
